Data on 2 compounds can be found in article PMC6154995, “Heme-dependent Inactivation of 5-Aminolevulinate Synthase from Caulobacter crescentus” (Scientific Reports, 2018).

Assay type in all cases: binding
Test [1] concerns the target T1, 5-aminolevulinate synthase (cALAS) (Caulobacter vibrioides, UniProt Q9A8J8, C398A).
T1 construct: gene CC_1355; recombinant cALAS C398A, PLP form
Description: apparent Kd from spectrophotometric titration. As to conditions: read-out: KdGly,app /.

Test [2] has as its target T2, 5-aminolevulinate synthase (cALAS) (Caulobacter vibrioides, UniProt Q9A8J8, C398A/H340A).
T2 construct: gene CC_1355; recombinant cALAS H340A/C398A, PLP form
The test can be described thus: apparent Kd from spectrophotometric titration. The conditions noted are these: read-out: KdGly,app /.

For test [3], the target named is T3, 5-aminolevulinate synthase (cALAS) (Caulobacter vibrioides, UniProt Q9A8J8). The test can be described thus: UV/Vis spectrophotometric titration. Set-up: gene CC_1355; recombinant full-length cALAS, PLP form.
T3 sequence (Q9A8J8 1-408): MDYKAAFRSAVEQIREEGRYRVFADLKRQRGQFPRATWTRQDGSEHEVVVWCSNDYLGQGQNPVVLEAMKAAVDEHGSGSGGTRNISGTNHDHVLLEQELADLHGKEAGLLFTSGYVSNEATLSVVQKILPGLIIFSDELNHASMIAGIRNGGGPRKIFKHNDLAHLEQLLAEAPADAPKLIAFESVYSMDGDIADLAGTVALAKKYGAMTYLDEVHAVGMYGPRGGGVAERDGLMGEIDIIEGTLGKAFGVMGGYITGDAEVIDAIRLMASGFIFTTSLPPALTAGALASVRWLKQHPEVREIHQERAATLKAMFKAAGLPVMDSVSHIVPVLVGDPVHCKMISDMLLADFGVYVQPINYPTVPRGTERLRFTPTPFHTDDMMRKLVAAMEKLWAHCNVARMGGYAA
In test [4] the target is T4, 5-aminolevulinate synthase (cALAS) (Caulobacter vibrioides, UniProt Q9A8J8, H340A).
T4 construct: gene CC_1355; recombinant cALAS H340A, PLP form
T4 sequence (Q9A8J8 1-408 H340A): as the sequence (Q9A8J8 1-408) above, with H340A counted along it
The test can be described thus: apparent Kd from spectrophotometric titration. As to conditions: read-out: KdGly,app /.

Test [5] has as its target T5, 5-aminolevulinate synthase (cALAS) (Caulobacter vibrioides, UniProt Q9A8J8, D214A).
T5 construct: gene CC_1355; D214A apo-cALAS
Description: UV/Vis titration of apoenzyme with PLP.

The target of test [6] is T3, 5-aminolevulinate synthase (cALAS). Description: UV/Vis and CD at […] nm; HPLC of PLP from purified enzyme. Set-up: gene CC_1355; recombinant full-length cALAS, C-terminal His6-tag.

SMILES strings stand for the structures.

T5 sequence (Q9A8J8 1-408 D214A): as the sequence (Q9A8J8 1-408) above, with D214A counted along it
T2 sequence (Q9A8J8 1-408 H340A/C398A): as the sequence (Q9A8J8 1-408) above, with H340A, C398A counted along it
T1 sequence (Q9A8J8 1-408 C398A): as the sequence (Q9A8J8 1-408) above, with C398A counted along it

On to `NCC(=O)O` [glycine], for which the Kd in test [1] amounted to 13.6 ± 3.1 mM; in test [2], 6.46 ± 1.5 mM; in test [3], 10.6 ± 1.35 mM; in test [4], 11.5 ± 1.17 mM.

Consider `Cc1ncc(COP(=O)(O)O)c(C=O)c1O` [pyridoxal 5′-phosphate], for which the “UV/Vis titration of apoenzyme with PLP” value in test [5] is “upon PLP titration, cALAS displayed spectral changes supporting internal Schiff-base formation between PLP and Lys248”. The “UV/Vis and CD at 424 nm; HPLC of PLP from purified enzyme” value in test [6] is on record as “a peak for PLP was observed for the PLP form of cALAS”.
